{"source": "paper PMC3502156", "about": "“Anti-plasmodial action of de novo-designed, cationic, lysine-branched, amphipathic, helical peptides” (Malaria Journal, 2012)", "key": {"[1]": {"test_system": "uninfected erythrocytes (URBC)", "experiment": "Haemolysis assay, uninfected red cells", "format": "cell-based, human", "conditions": "3 h", "procedure": "Selectivity of haemolysis by peptides for infected erythrocytes (PRBC) vs uninfected erythrocytes (URBC) was examined by incubating the test molecules with URBCs and PRBCs respectively in phosphate-buffered saline (PBS). Briefly, fresh RBCs were spin washed (1600 RPM; 5 min) three times in PBS and re-suspended in PBS at 2% haematocrit. A 100 μl suspension was added to 96-well plate containing the peptides at different concentrations. […] After incubation at 37°C for 3 hr, the samples were centrifuged and supernatant was used to determine the haemolytic activity measured in terms of haemoglobin release as monitored by […]. Triton-treated control samples were diluted 10-fold before reading absorbance. […] Percent haemolysis has been expressed with reference to 100% haemolysis value assigned to positive control (triton X 100 treated RBCs). To study haemolytic susceptibility of parasitized cells, URBCs were replaced with varying percentages (10% and 20%) of mixed stage parasitized cells. […] Haemolysis of parasitized erythrocytes was also monitored microscopically by examining the Giemsa-stained smears. Parasitaemia of ΔFd treated and untreated cultures were microscopically counted for ring, trophozoite and schizont stages respectively. Susceptibility of different stages was compared with corresponding untreated control cultures."}, "[2]": {"test_system": "P. falciparum 3D7 (chloroquine-sensitive)", "experiment": "microbe, parasite or virus in culture", "format": "cell-based, Plasmodium falciparum"}, "[3]": {"test_system": "P. falciparum 3D7 (chloroquine-sensitive)", "experiment": "microbe, parasite or virus in culture", "format": "cell-based, Plasmodium falciparum", "conditions": "3D7 (chloroquine-sensitive, 48 h)", "procedure": "(§1) Chloroquine-sensitive (3D7) and CQ-resistant (Dd2 and INDO) strains of P. falciparum were maintained in continuous culture according to the method of Trager and Jensen with minor modifications. Cultures were maintained in fresh group O^+ve human erythrocytes suspended at 4% haematocrit in complete medium {16.2 g/L RPMI 1640 containing 25 mM HEPES, 11.11 mM glucose (Gibco), 0.2% sodium bicarbonate (Sigma), 0.5% Albumax I (Gibco), 45 μg/litre hypoxanthine (Sigma) and 50 μg/litre gentamicin (Gibco)} and incubated at 37°C under a gas mixture 5% O2, 5% CO2, and 90% N2. Every day, the spent medium was replaced by fresh complete medium to propagate the culture. […] Parasitaemia was monitored by microscopic examination of Giemsa-stained blood smears. Synchronized ring stage parasite was obtained by 5% sorbitol treatment. Trophozoites and schizont-stage parasites were enriched by using Percoll gradient.\n(§2) Stock solutions of peptides and CQ were prepared in water (milli-Q grade) while artemisinin stock solution was in dimethyl sulphoxide (DMSO). All stocks were then diluted with culture medium to achieve the required drug concentrations. The concentration of peptide solution in water was based on A280 [ϵ (M^-1 cm^-1) ΔF (didehydrophenylalanine) 19,000, W (Tryptophan) 5,000)]. Thus ϵ280 were 62,000, 124,000, 124,000 and 248,000 for ΔFm, (ΔFm)2, ΔFd and ΔFq respectively. The concentration of FITC-peptides was based on A495 [ϵ(M^-1 cm^-1) FITC 77,000 for (ΔFm)2 with one FITC and 154,000 for ΔFd with two FITC per molecule]. Drugs and peptides solutions were placed in 96-well flat bottom tissue culture grade plates (Corning).\n(§3) For drug screening, SYBR green I based fluorescence assay was used as described previously by Smilkstein et al.[30]. Sorbitol synchronized ring stage parasites (haematocrit: 2%, parasitaemia: 1%, 100 μl) under normal culture conditions were incubated in the absence or presence of increasing concentrations of peptides in water. CQ and artemisinin were used as positive controls. […] After 48 hr of incubation 100 μl of SYBR Green I buffer [0.2 μl of 10,000 X SYBR Green I (Invitrogen) per ml of lysis buffer {Tris (20 mM; pH 7.5), EDTA (5 mM), saponin (0.008%; wt/vol), and Triton X-100 (0.08%; vol/vol)}] was added to each well, mixed twice gently with multi-channel pipette and incubated in dark at 37 °C for 1 h. Fluorescence was measured with a Victor fluorescence multi-well plate reader (Perkin Elmer) with excitation and emission wavelength centred at 485 and 530 nm, respectively. Fluorescence counts for CQ (0.1 μM for 3D7, 1 μM for INDO) were subtracted from counts in each well. The fluorescence counts were plotted against the drug concentration and IC50 (the 50% inhibitory concentration) was determined by analysis of dose–response curves. Results of the above mentioned fluorescence-based assay were validated microscopically by examination of Giemsa-stained smears of peptide-treated parasite cultures. Statistical significance of relative potencies of peptides was determined by student’s T test."}, "[4]": {"test_system": "P. falciparum Dd2 (CQ-resistant)", "experiment": "microbe, parasite or virus in culture", "format": "cell-based, Plasmodium falciparum", "conditions": "for Resistance index IC50 Dd2/ IC50 3D7: IC50 CQ resistant strain/ IC50 CQ sensitive strain", "procedure": "as §1, §2, §3"}}, "note": "Where two headings read alike, the source gives them in different places. Starred links: 1 amine or outer side, 2 acyl side, 3 side chain; linkers in the order of their positions; H or OH if unused. Positions of bridges follow the written chain, without caps; N, C: chain ends. Non-standard residues stand in square brackets, D forms with d. Residues, ends and D or L forms follow the SMILES beside them. Chains are numbered I, II in the order given. X1 = O=C(/C(=C/c1ccccc1)N[*:1])[*:2]; X2 = O=C(C(=Cc1ccccc1)N[*:1])[*:2]"}
{"molecule": "CC(=O)NCC(=O)NC(=Cc1ccccc1)C(=O)N[C@@H](CCCNC(=N)N)C(=O)N[C@@H](CCCCN)C(=O)NC(=Cc1ccccc1)C(=O)N[C@@H](Cc1c[nH]cn1)C(=O)N[C@@H](CCCCN)C(=O)NC(=Cc1ccccc1)C(=O)N[C@@H](Cc1c[nH]c2ccccc12)C(=O)N[C@@H](C)C(=O)N[C@@H](C)C(=O)NCC(=O)NC(=Cc1ccccc1)C(=O)N[C@@H](CCCNC(=N)N)C(=O)N[C@@H](CCCCN)C(=O)NC(=Cc1ccccc1)C(=O)N[C@@H](Cc1c[nH]cn1)C(=O)N[C@@H](CCCCN)C(=O)NC(=Cc1ccccc1)C(=O)N[C@@H](Cc1c[nH]c2ccccc12)C(=O)N[C@@H](C)C(N)=O", "note": "[(ΔFm)2] (Ac-G[X2]RK[X2]HK[X2]WAAG[X2]RK[X2]HK[X2]WA-NH2)", "values": [{"measurement": "HC50 URBC", "setting": "[1]", "value": "> 50", "unit": "µM"}, {"measurement": "Hemolytic Selectivity index (HC50 URBC/ IC50 Pf 3D7)", "setting": "[1]", "value": "> 20"}, {"measurement": "increment in potency at 96 hr (two cycles) vs 48 hr (one cycle)", "setting": "[2]; P. falciparum 3D7, SYBR Green assay", "value": 1.5, "unit": "fold"}, {"measurement": "IC50", "setting": "[3]", "value": "2400 ± 150", "unit": "nM"}, {"measurement": "IC50", "setting": "[4]; Dd2 (CQ-resistant, 48 h)", "value": "2500 ± 130", "unit": "nM"}, {"measurement": "Resistance index IC50 Dd2/ IC50 3D7", "setting": "[4]", "value": 1.04}]}
{"molecule": "CCN(CC)CCCC(C)Nc1ccnc2cc(Cl)ccc12", "note": "(centres unmarked) [Chloroquine, reference compound]", "values": [{"measurement": "IC50", "setting": "[2]; Plasmodium falciparum, 3D7, 48 h, read-out: IC50 P. falciparum 3D7", "value": 40, "unit": "nM"}, {"measurement": "Resistance index IC50 Dd2/ IC50 3D7", "setting": "[4]", "value": 4}, {"measurement": "IC50", "setting": "[4]; Plasmodium falciparum, DD2, 48 h, read-out: IC50 P. falciparum Dd2", "value": 160, "unit": "nM"}]}
{"molecule": "CC(=O)NCC(=O)N[C@@H](Cc1ccccc1)C(=O)N[C@@H](CCCNC(=N)N)C(=O)N[C@@H](CCCCN)C(=O)N[C@@H](Cc1ccccc1)C(=O)N[C@@H](Cc1c[nH]cn1)C(=O)N[C@@H](CCCCN)C(=O)N[C@@H](Cc1ccccc1)C(=O)N[C@@H](Cc1c[nH]c2ccccc12)C(=O)N[C@@H](C)C(=O)NCCCC[C@H](NC(=O)[C@H](C)NC(=O)[C@H](Cc1c[nH]c2ccccc12)NC(=O)[C@H](Cc1ccccc1)NC(=O)[C@H](CCCCN)NC(=O)[C@H](Cc1c[nH]cn1)NC(=O)[C@H](Cc1ccccc1)NC(=O)[C@H](CCCCN)NC(=O)[C@H](CCCNC(=N)N)NC(=O)[C@H](Cc1ccccc1)NC(=O)CNC(C)=O)C(N)=O", "note": "[Fd] (I: Ac-GFRKFHKFWAK-NH2 / II: Ac-GFRKFHKFWA; amide I:11-II:C; N-terminus and C-terminus assumed)", "values": [{"measurement": "HC50 URBC", "setting": "[1]", "value": "> 50", "unit": "µM"}, {"measurement": "Hemolytic Selectivity index (HC50 URBC/ IC50 Pf 3D7)", "setting": "[1]", "value": "> 33"}, {"measurement": "IC50", "setting": "[3]", "value": "1500 ± 80", "unit": "nM"}]}
{"molecule": "CC(=O)NCC(=O)N[C@@H](Cc1ccccc1)C(=O)N[C@@H](CCCNC(=N)N)C(=O)N[C@@H](CCCCN)C(=O)N[C@@H](Cc1ccccc1)C(=O)N[C@@H](Cc1c[nH]cn1)C(=O)N[C@@H](CCCCN)C(=O)N[C@@H](Cc1ccccc1)C(=O)N[C@@H](Cc1c[nH]c2ccccc12)C(=O)N[C@@H](C)C(N)=O", "note": "[Fm] (Ac-GFRKFHKFWA-NH2)", "values": [{"measurement": "HC50 URBC", "setting": "[1]", "value": ">100", "unit": "µM"}, {"measurement": "IC50", "setting": "[3]", "value": "> 100000", "unit": "nM"}, {"measurement": "IC50", "setting": "[4]; Dd2 (CQ-resistant, 48 h)", "value": "> 100000", "unit": "nM"}]}
{"molecule": "C[C@H](NC(=O)[C@H](C)NC(=O)[C@H](CCCCN)NC(=O)[C@H](Cc1c[nH]cn1)NC(=O)[C@@H]1CCCN1C(=O)[C@H](CCC(=O)O)NC(=O)[C@@H](N)CCC(=O)O)C(=O)N[C@@H](CO)C(=O)N[C@@H](C)C(=O)N[C@@H](CCC(=O)O)C(=O)NCC(=O)N[C@@H](CCCCN)C(=O)N[C@@H](CCCCN)C(=O)O", "note": "[Prochitinase, reference compound] (H-EEPHKAASAEGKK-OH)", "values": [{"measurement": "HC50 URBC", "setting": "[1]", "value": "> 40", "unit": "µM"}, {"measurement": "IC50", "setting": "[3]", "value": "> 40000", "unit": "nM"}]}
{"molecule": "CC(=O)NCC(=O)NC(=Cc1ccccc1)C(=O)N[C@@H](CCCNC(=N)N)C(=O)N[C@@H](CCCCN)C(=O)NC(=Cc1ccccc1)C(=O)N[C@@H](Cc1c[nH]cn1)C(=O)N[C@@H](CCCCN)C(=O)NC(=Cc1ccccc1)C(=O)N[C@@H](Cc1c[nH]c2ccccc12)C(=O)N[C@@H](C)C(N)=O", "note": "[ΔFm] (Ac-G[X2]RK[X2]HK[X2]WA-NH2)", "values": [{"measurement": "HC50 URBC", "setting": "[1]", "value": ">100", "unit": "µM"}, {"measurement": "IC50", "setting": "[3]", "value": "> 100000", "unit": "nM"}, {"measurement": "IC50", "setting": "[4]; Dd2 (CQ-resistant, 48 h)", "value": "> 100000", "unit": "nM"}]}
{"molecule": "I: Ac-G[X1]RK[X1]HK[X1]WAKK-NH2 / II: Ac-G[X1]RK[X1]HK[X1]WAK / III: Ac-G[X1]RK[X1]HK[X1]WA / IV: Ac-G[X1]RK[X1]HK[X1]WA (amide I:11-IV:C, I:12-II:C, II:11-III:C; N-terminus and C-terminus assumed) [ΔFq]", "values": [{"measurement": "HC50 URBC", "setting": "[1]", "value": "2.5 ± 0.13", "unit": "µM"}, {"measurement": "Hemolytic Selectivity index (HC50 URBC/ IC50 Pf 3D7)", "setting": "[1]", "value": 10}, {"measurement": "IC50", "setting": "[3]", "value": "250 ± 20", "unit": "nM"}]}
